Values of other authors in patent publication US20080254143A1, “COMPOSITION FOR IMPROVING IMMUNE SYSTEM HEALTH” (priority 2007, published 2008).

What was measured:
common cold [1] = details: administered or recruited within 24 hrs of the onset of symptoms
common cold [2] = details: daily supplementation, amounts greater than 100 mg
rhinovirus = details: prevents formation of viral capsid proteins
TNF-α = details: activated macrophages (LPS/IFN-gamma-activated RAW 264.7)

Compound	duration and severity of symptoms of a common cold (common cold [1])	other results
CC(=O)[O-].CC(=O)[O-].[Zn+2] [Zinc acetate]	reduce the duration and overall severity	–
O=S(=O)([O-])[O-].[Zn+2] [Zinc sulphate]	reduce the duration and overall severity	–
O=C1O[C@H]([C@@H](O)CO)C(O)=C1O [ascorbic acid, L-ascorbic acid]	–	incidence, severity and integrated morbidity of the common cold (common cold [2]): lowers the incidence, severity and integrated morbidity
[Zn] [zinc, Zinc]	reducing the duration and severity	in vitro replication of the rhinovirus (rhinovirus): inhibits in vitro replication
Anthocyanins	–	TNF-α production (TNF-α): induce TNF-α production
